Data taken from patent US20100022652A1, “Antimicrobial and Anticoagulant Compositions and Methods” (Tyco Healthcare Group LP, priority 2008, published 2010).

Assays:
[1] = system: clot formation in normal anticoagulated plasma; experiment: Prothrombin time (PT) assay, PT converted to INR; type: biochemical, human; details: ISI 1.65
Method: The Prothrombin Time (PT) Assay primarily measures the time required for the clot formation in a test sample. Per the assay, the test samples first mixed with normal anticoagulated plasma in a ratio of 1:9 and incubated for 2 minutes at Room temperature. Then tissue thromboplastin with calcium ions is added to the test samples. The samples are then incubated for 2 minutes at 37° C. Tissue thromboplastin and calcium ions is added to normal anticoagulated plasma mixed with formulation, to initiate the clotting mechanism leading to formation of a fibrin clot. The coagulation analyzer is utilized to record the PT required for clot formation. The PT so obtained is then converted to International Normalized Ratio (INR) by utilizing the following formula:
INR=(PTTest Sample/PTControl Level 1)^ISI;
wherein ISI (International Sensitivity Index)—indicates the sensitivity of individual thromboplastin. The value of ISI utilized in the anticoagulant investigations reported herein is 1.65.
If the deficiency exists within coagulation pathway (for example test blood contains heparin or other anticoagulant) the time required for clot formation will be prolonged. Any INR values ≧ that of abnormal plasma level 2 (e.g., TriniCHECK™ Level 2; Trinity Biotech) are considered indicative of deficiency within the coagulation pathway, and thus indicative of highly anticoagulative properties. Any INR values higher than 5.5 are considered indicative of highly anticoagulant behavior. Therefore, the strength of an anticoagulant can be characterized by the INR value, i.e., the larger the INR value the stronger the anticoagulant properties.

[2] = system: Pseudomonas aeruginosa (ATCC 27853); experiment: Checkerboard titration / micro-dilution antimicrobial synergy evaluation (MIC, FIC); type: cell-based
Method: The combinations having an FIC index of ≦0.5 are considered synergistic while a FIC index of >0.5 but ≦1 are considered partially synergistic.
First, potential antimicrobial synergy in a composition having a combination of EDTA and NAC components was investigated with respect to the Pseudomonas aeruginosa (ATCC 27853) microorganism.
According to this method the stock solutions are prepared having a concentration equivalent or higher than twice the MIC of the components among which synergy is to be tested.
As the solutions get turbid, a higher optical density values generated. Generally speaking, increased turbidity, and thus higher optical density readings, are indicative of the presence of micro organisms in the solution. During analysis of the samples, optical density measurements above a predetermined cutoff value is indicative that there are microorganisms present in the solutions or samples, and are thus characterized by positive growth (+), while optical density readings which fall below the cutoff value can be characterized by negative growth (−). A number of the OD measurements were made (OD1, OD2, OD3), and the mean value calculated.

Row | MIC [2] [wt %] | Structure (SMILES) | INR ([1]; 4 wt % DEDTA alone) | INR ([1]; at 8 wt %)
1 | 0.25 | O=C([O-])CN(CCN(CC(=O)[O-])CC(=O)O)CC(=O)O.[Na+].[Na+] [DEDTA, disodium EDTA] | 16.7 | > 233
2 | 0.25 | CC(=O)N[C@@H](CS)C(=O)O [NAC, N-Acetyl Cysteine] | – | > 26
